Test results: US10100064B2, “Purine inhibitors of human phosphatidylinositol 3-kinase delta” (Merck Sharp & Dohme Corp., priority 2014, dated 2018)

What was measured:
PI3Kdelta = molecular target: T1, PI3Kdelta (Homo sapiens, UniProt O00329); test: HTRF PI3K biochemical assay, delta isoform; details: 0.3 nM enzyme, 100 uM ATP, 5 uM PIP2, form screened (Neutral or TFA salt) given per compound
T1 construct: purchased Upstate; Millipore 14-604
Procedure, shortened: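 PI3Kδ at 0.3 nM with 100 uM ATP and 5 uM PIP2, 10-point 3-fold dilutions, 15 min enzyme–compound pre-incubation, then 1 h reaction at room temperature. PIP3 formation detected by HTRF displacement of biotin-PIP3 from GST-GRP1-PH (665/620 nm ratio). IC50 corrected using a PIP3 standard curve.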

PI3Kalpha = molecular target: T2, PI3Kalpha (Homo sapiens, UniProt P42336); test: HTRF PI3K biochemical assay, alpha isoform (selectivity versus delta); details: relative ratio PI3K-alpha IC50 value / PI3K-delta IC50 value
T2 construct: purchased Upstate; Millipore 14-602
Procedure, shortened: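 Recombinant PI3Kα (0.5 nM) pre-incubated 15 min with compound, then reacted 1 h at room temperature with 5 μM PIP2 and 100 μM ATP. After EDTA stop, PIP3 measured by HTRF displacement of biotin-PIP3 from GST-GRP1 PH domain (665/620 nm). 10-point dose response; IC50 corrected using a PIP3 standard curve.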

T2 sequence (P42336 whole entry, canonical isoform): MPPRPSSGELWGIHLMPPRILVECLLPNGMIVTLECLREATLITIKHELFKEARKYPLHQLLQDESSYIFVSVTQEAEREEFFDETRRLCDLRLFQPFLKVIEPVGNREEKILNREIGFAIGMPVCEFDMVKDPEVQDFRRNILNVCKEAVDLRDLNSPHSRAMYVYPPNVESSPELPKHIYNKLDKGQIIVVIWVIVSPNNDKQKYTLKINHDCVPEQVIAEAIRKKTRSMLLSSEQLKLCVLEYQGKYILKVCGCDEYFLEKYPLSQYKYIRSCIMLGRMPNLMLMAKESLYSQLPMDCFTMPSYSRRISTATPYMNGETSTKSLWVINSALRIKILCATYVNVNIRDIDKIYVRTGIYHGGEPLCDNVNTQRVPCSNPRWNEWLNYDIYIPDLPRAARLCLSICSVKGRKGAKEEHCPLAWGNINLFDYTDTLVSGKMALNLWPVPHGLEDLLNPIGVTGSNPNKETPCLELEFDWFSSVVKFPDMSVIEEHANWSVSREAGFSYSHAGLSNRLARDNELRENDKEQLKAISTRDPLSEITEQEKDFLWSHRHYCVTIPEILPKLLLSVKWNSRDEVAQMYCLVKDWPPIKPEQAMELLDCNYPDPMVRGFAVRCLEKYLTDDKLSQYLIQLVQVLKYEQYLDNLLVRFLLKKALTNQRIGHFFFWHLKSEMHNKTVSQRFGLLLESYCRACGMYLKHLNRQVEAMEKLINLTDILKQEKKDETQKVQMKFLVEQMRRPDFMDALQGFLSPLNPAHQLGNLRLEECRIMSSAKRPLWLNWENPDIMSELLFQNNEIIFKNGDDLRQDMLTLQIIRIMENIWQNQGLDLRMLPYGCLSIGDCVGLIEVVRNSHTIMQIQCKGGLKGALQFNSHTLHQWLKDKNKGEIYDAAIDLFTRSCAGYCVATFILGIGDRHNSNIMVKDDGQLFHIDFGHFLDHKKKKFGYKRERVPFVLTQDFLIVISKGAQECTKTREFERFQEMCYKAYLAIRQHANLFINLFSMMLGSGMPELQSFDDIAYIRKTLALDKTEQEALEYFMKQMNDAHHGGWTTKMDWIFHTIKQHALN
T2 sequence (P27986 whole entry partner, canonical isoform): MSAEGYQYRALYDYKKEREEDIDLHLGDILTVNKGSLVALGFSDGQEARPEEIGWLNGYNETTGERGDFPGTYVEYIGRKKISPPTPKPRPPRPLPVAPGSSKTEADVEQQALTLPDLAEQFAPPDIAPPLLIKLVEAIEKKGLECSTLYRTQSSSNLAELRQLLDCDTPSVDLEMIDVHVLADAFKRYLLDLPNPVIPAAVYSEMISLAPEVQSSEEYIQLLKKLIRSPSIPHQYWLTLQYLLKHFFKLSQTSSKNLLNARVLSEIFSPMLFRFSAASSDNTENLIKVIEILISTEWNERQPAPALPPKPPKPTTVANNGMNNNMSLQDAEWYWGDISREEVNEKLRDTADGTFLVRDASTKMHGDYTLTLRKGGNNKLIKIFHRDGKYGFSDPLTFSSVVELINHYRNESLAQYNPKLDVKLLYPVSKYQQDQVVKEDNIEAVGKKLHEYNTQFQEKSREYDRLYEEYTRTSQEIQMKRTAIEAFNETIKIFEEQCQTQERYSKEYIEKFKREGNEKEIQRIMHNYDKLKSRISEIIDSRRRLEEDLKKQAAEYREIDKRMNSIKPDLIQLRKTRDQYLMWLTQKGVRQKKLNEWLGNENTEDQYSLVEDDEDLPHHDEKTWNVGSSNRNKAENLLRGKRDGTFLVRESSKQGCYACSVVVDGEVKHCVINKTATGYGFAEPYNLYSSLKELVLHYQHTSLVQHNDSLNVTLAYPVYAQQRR
T1 sequence (O00329 whole entry, canonical isoform): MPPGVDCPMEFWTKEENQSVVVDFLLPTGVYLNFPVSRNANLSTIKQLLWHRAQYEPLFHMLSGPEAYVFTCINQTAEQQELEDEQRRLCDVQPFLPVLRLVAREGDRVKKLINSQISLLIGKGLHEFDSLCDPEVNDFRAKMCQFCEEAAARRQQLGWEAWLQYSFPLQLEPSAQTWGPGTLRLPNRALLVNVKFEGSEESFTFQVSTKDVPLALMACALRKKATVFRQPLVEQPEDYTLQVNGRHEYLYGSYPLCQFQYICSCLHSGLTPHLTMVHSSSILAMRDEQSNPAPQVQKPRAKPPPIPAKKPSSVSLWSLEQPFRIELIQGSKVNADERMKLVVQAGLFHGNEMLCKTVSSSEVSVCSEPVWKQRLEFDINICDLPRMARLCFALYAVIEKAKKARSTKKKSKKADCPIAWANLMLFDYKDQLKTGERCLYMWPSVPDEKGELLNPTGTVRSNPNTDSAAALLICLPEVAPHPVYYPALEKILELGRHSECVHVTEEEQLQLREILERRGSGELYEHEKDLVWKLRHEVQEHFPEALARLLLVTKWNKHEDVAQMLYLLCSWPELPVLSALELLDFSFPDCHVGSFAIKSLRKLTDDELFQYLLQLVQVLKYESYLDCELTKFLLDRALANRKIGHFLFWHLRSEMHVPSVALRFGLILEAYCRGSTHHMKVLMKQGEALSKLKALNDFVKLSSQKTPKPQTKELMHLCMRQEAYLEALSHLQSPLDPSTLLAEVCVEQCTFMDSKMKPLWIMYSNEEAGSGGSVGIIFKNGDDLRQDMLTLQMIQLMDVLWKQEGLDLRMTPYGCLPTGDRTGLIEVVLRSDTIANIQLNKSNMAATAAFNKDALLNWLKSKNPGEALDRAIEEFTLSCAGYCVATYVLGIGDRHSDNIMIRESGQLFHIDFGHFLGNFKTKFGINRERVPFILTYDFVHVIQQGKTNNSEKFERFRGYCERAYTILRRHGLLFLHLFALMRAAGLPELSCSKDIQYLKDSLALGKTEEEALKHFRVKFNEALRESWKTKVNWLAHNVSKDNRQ
T1 sequence (P27986 whole entry partner, canonical isoform): as the sequence (P27986 whole entry partner, canonical isoform) above

Structure (SMILES) | IC50 (PI3Kdelta) [nM] | Selectivity versus PI3Kalpha (PI3Kalpha)
CCn1c(-c2ccc(C(F)(F)F)nc2)nc2c(NC3CCc4ncn(C5CC5)c4C3)ncnc21 (single isomer, unassigned) [Compound 5-2, (S or R)-N-(1-cyclopropyl-4,5,6,7-tetrahydro-1H-benzimidazol-6-yl)-9-ethyl-8-[6-(trifluoromethyl)pyridin-3-yl]-9H-purin-6-amine] | 3.3 | >10
CCn1c(-c2ccc(C(F)(F)F)nc2)nc2c(NC3CCc4ncn(C5CC5)c4C3)ncnc21 (single isomer, unassigned) [Compound 5-3, (S or R)-N-(1-cyclopropyl-4,5,6,7-tetrahydro-1H-benzimidazol-6-yl)-9-ethyl-8-[6-(trifluoromethyl)pyridin-3-yl]-9H-purin-6-amine] | 180 | >10
CCn1c(-c2ccc(C(F)(F)F)cc2)nc2c(NC3CCc4ncn(C5CC5)c4C3)ncnc21 (single isomer, unassigned) [Compound 5-4, (S or R)-N-(1-cyclopropyl-4,5,6,7-tetrahydro-1H-benzimidazol-6-yl)-9-ethyl-8-[4-(trifluoromethyl)phenyl]-9H-purin-6-amine] | 180 | >10
CCn1c(-c2ccc(C(F)(F)F)cc2)nc2c(NC3CCc4ncn(C5CC5)c4C3)ncnc21 (single isomer, unassigned) [Compound 5-5, (S or R)-N-(1-cyclopropyl-4,5,6,7-tetrahydro-1H-benzimidazol-6-yl)-9-ethyl-8-[4-(trifluoromethyl)phenyl]-9H-purin-6-amine] | 5.1 | >10
CCn1c(C(F)F)nc2c(NC3CCc4ncn(C5CC5)c4C3)ncnc21 (single isomer, unassigned) [Compound 5-6, (S or R)-N-(1-cyclopropyl-4,5,6,7-tetrahydro-1H-benzimidazol-6-yl)-8-(difluoromethyl)-9-ethyl-9H-purin-6-amine] | 170 | >10
CCn1c(-c2cnc(C)nc2)nc2c(NC3CCc4nc(C)n(C5CC5)c4C3)ncnc21 (single isomer, unassigned) [Compound 5-7, (S or R)-N-(1-cyclopropyl-2-methyl-4,5,6,7-tetrahydro-1H-benzimidazol-6-yl)-9-ethyl-8-(2-methylpyrimidin-5-yl)-9H-purin-6-amine] | 19 | >10
CCc1nc2c(n1C1CC1)CC(Nc1ncnc3c1nc(-c1cnc(C)nc1)n3CC)CC2 (single isomer, unassigned) [Compound 5-8, (S or R)-N-(1-cyclopropyl-2-ethyl-4,5,6,7-tetrahydro-1H-benzimidazol-6-yl)-9-ethyl-8-(2-methylpyrimidin-5-yl)-9H-purin-6-amine] | 21 | >10
CCn1c(C(=O)NCC(F)(F)F)nc2c(NC3CCc4ncn(C5CC5)c4C3)ncnc21 (single isomer, unassigned) [Compound 5-9, (S or R)-6-[(1-cyclopropyl-4,5,6,7-tetrahydro-1H-benzimidazol-6-yl)amino]-9-ethyl-N-(2,2,2-trifluoroethyl)-9H-purine-8-carboxamide] | 51 | >10
CCn1c(-c2cnc(C)nc2)nc2c(NC3CCc4nc(C(F)F)n(C5CC5)c4C3)ncnc21 (single isomer, unassigned) [Compound 5-10, (S or R)-N-[1-cyclopropyl-2-(difluoromethyl)-4,5,6,7-tetrahydro-1H-benzimidazol-6-yl]-9-ethyl-8-(2-methylpyrimidin-5-yl)-9H-purin-6-amine] | < 1 | >10
CCn1c(-c2cnc(C)nc2)nc2c(NC3CCc4nc(C(F)F)n(C5CC5)c4C3)ncnc21 (single isomer, unassigned) [Compound 5-11, (S or R)-N-[1-cyclopropyl-2-(difluoromethyl)-4,5,6,7-tetrahydro-1H-benzimidazol-6-yl]-9-ethyl-8-(2-methylpyrimidin-5-yl)-9H-purin-6-amine] | 40 | >10
CCn1c(-c2cnc(C)nc2)nc2c(NC3CCc4ncn([C@H]5C[C@@H](OC)C5)c4C3)ncnc21 (single isomer, unassigned) [Compound 5-13, (S or R)-9-ethyl-N-[1-(cis-3-methoxycyclobutyl)-4,5,6,7-tetrahydro-1H-benzimidazol-6-yl]-8-(2-methylpyrimidin-5-yl)-9H-purin-6-amine] | 4.7 | >10
CCn1c(-c2cnc(C)nc2)nc2c(NC3CCc4ncn([C@H]5C[C@@H](OC)C5)c4C3)ncnc21 (single isomer, unassigned) [Compound 5-14, (S or R)-9-ethyl-N-[1-(cis-3-methoxycyclobutyl)-4,5,6,7-tetrahydro-1H-benzimidazol-6-yl]-8-(2-methylpyrimidin-5-yl)-9H-purin-6-amine] | 230 | >10
CCn1c(-c2cnc(C)nc2)nc2c(NC3CCc4ncn(C(C)C)c4C3)ncnc21 (single isomer, unassigned) [Compound 5-15, (S or R)-9-ethyl-N-[1-(1-methylethyl)-4,5,6,7-tetrahydro-1H-benzimidazol-6-yl]-8-(2-methylpyrimidin-5-yl)-9H-purin-6-amine] | 4.2 | >10
CCn1c(-c2cnc(C)nc2)nc2c(NC3CCc4ncn(C(C)C)c4C3)ncnc21 (single isomer, unassigned) [Compound 5-16, (S or R)-9-ethyl-N-[1-(1-methylethyl)-4,5,6,7-tetrahydro-1H-benzimidazol-6-yl]-8-(2-methylpyrimidin-5-yl)-9H-purin-6-amine] | 384 | >10
CCn1c(-c2cnc(C)nc2)nc2c(NC3Cc4c(ncn4C(C)C)C(C)C3)ncnc21 (single isomer, unassigned) [Compound 5-17, 9-ethyl-N-[(4(S or R), 6(S or R)-4-methyl-1-(1-methylethyl)-4,5,6,7-tetrahydro-1H-benzimidazol-6-yl]-8-(2-methylpyrimidin-5-yl)-9H-purin-6-amine] | 9 | >10
CCn1c(-c2cnc(C)nc2)nc2c(NC3Cc4c(ncn4C(C)C)C(C)C3)ncnc21 (single isomer, unassigned) [Compound 5-18, 9-ethyl-N-[(4(S or R), 6(S or R)-4-methyl-1-(1-methylethyl)-4,5,6,7-tetrahydro-1H-benzimidazol-6-yl]-8-(2-methylpyrimidin-5-yl)-9H-purin-6-amine] | 510 | >10
CCn1c(-c2cnc(C)nc2)nc2c(NC3Cc4c(ncn4C(C)C)CC3C)ncnc21 (single isomer, unassigned) [Compound 5-19, 9-ethyl-N-[cis-5-methyl-1-(1-methylethyl)-4,5,6,7-tetrahydro-1H-benzimidazol-6-yl]-8-(2-methylpyrimidin-5-yl)-9H-purin-6-amine] | 1.7 | >10
CCn1c(-c2cnc(C)nc2)nc2c(NC3Cc4c(ncn4C(C)C)CC3C)ncnc21 (single isomer, unassigned) [Compound 5-20, 9-ethyl-N-[trans-5-methyl-1-(1-methylethyl)-4,5,6,7-tetrahydro-1H-benzimidazol-6-yl]-8-(2-methylpyrimidin-5-yl)-9H-purin-6-amine] | 120 | >10
CCn1c(-c2cnc(C)nc2)nc2c(NC3CCc4ncn(C(C)C)c4C3C)ncnc21 (single isomer, unassigned) [Compound 5-21, 9-ethyl-N-[((6S, 7S) or (6R, 7R))-7-methyl-1-(1-methylethyl)-4,5,6,7-tetrahydro-1H-benzimidazol-6-yl]-8-(2-methylpyrimidin-5-yl)-9H-purin-6-amine] | 5.7 | >10
CCn1c(-c2cnc(C)nc2)nc2c(NC3CCc4ncn(C(C)C)c4C3C)ncnc21 (single isomer, unassigned) [Compound 5-22, 9-ethyl-N-[((6S, 7S) or (6R, 7R))-7-methyl-1-(1-methylethyl)-4,5,6,7-tetrahydro-1H-benzimidazol-6-yl]-8-(2-methylpyrimidin-5-yl)-9H-purin-6-amine] | 260 | >10
CCn1c(-c2cnc(C)nc2)nc2c(NC3CCn4cnc(C(C)C)c4C3)ncnc21 (single isomer, unassigned) [Compound 6-1, (S or R)-9-ethyl-N-[1-(1-methylethyl)-5,6,7,8-tetrahydroimidazo[1,5-a]pyridin-7-yl]-8-(2-methylpyrimidin-5-yl)-9H-purin-6-amine] | 10 | >10
CCn1c(-c2cnc(C)nc2)nc2c(N[C@H]3Cc4nnc(C5CC5)n4C3)ncnc21 [Compound 1-38, N-[(6S)-3-cyclopropyl-6,7-dihydro-5H-pyrrolo[2,1-c][1,2,4]triazol-6-yl]-9-ethyl-8-(2-methylpyrimidin-5-yl)-9H-purin-6-amine] | 5 | >10
